From US7468369B2, “Sulfonyl pyrrolidines, method for producing the same and their use as drugs” (Sanofi-Aventis, priority 2005, dated 2008)
Where a name gives a salt, the structure may show the parent alone.

The molecules below were run on human ABCA1 promoter (assay: ABCA1 promoter test (luciferase reporter in stably transfected THP1 cell line)). Conditions: Homo sapiens, THP-1; ABCA1 reporter cell line (THP1, PMA-differentiated), 24 h incubation, luciferase chemiluminescence; read-out: E50 ABCA1.
Type: cell-based
Protocol: The potency of substances which activate expression of the human ABCA1 gene via its promoter is analyzed by using a stably transfected THP1 cell line (human monocyte cell line) which is referred to herein as ABCA1 reporter cell line. It contains a fragment, 3.2 kb in size and stably integrated into the genome, of the human ABCA1 promoter in front of a luciferase reporter element. Expression of the luciferase reporter gene is only low without addition of an ABCA1 expression activator. The substances stimulating ABCA1 expression bring about, via activation of the ABCA1 promoter, an enhanced expression of the luciferase reporter gene. The luciferase which is formed can be detected via an appropriate substrate by means of chemiluminescence.
Construction of the Cell Line
The ABCA1 reporter line was prepared as follows: firstly the neomycin resistance gene (Acc. No.: AJ000156) was introduced into the luciferase reporter plasmid pLG3basic (#1751, Promega) 3′ below the luciferase reporter element. Subsequently, an ABCA1 promoter fragment, 3.2 kb in size and amplified from human genomic DNA (#6550-1, Clontech) by the polymerase chain reaction, was cloned in 5′ above the luciferase reporter element. The reporter plasmid produced in this way was called pGL3BN-ABCA1P. Luciferase expression in this plasmid is controlled by the ABCA1 promoter. Cloning and sequencing of the construct took place in analogy to the description in Sambrook J et al. (Molecular cloning, Cold Spring Harbor Laboratory Press, 1989). For stable transfection into THP1 cells, firstly pGL3BN-ABCA1P was linearized with a restriction endonuclease and then introduced into the THP1 cells as stated in Ausubel, F. M. et al. (Current protocols in molecular biology, Vol. 1-3, John Wiley & Sons, Inc., 1995).
The activity of ABCA1 expression activators is determined in a 3-day test which is described below:
The ABCA1 reporter cell line comprises suspension cells. These are cultured until the concentration is 0.5×10^6 cells/ml in RPMI medium (#52400-025, Invitrogen) which is mixed with the following additions: 10% FCS (fetal calf serum; #16000-044, invitrogen), 0.5 mg/ml Geneticin (#10131-019, invitrogen) and 1% penicillin-streptomycin solution (#15140-122, invitrogen). The culturing takes place in standard cell culture flasks (#353112, Becton Dickinson) in a cell culture incubator at 37° C. in the presence of 5% CO2.
For the ABCA1 promoter test, the suspension cells are centrifuged at 1200 rpm in 50 ml tubes. The supernatant is aspirated off, and the pellet is resuspended in 15 ml of RPMI medium and counted in a cell counter. After dilution to 175 000 cells/ml, 0.1 μg/ml PMA (phorbol 12-myristate 13-acetate, #8139-5MG, Sigma) is added in order to induce differentiation of the monocytic THP1 suspension cells into adherent macrophages. 35 000 cells in each well are seeded in a 96-well microtiter plate with clear plastic base (#3610, Corning Costar). The plates are incubated in a cell culture incubator at 37° C. and 5% CO2 for 24 h.
The ABCA1 expression activators to be tested are dissolved in a concentration of 10 mM in DMSO. This stock solution is diluted in the RPMI medium (mixed with 0.1 μg/ml PMA) described above. Test substances are tested in 11 different concentrations in the range from […] to 330 pM. The medium of the ABCA1 reporter cell line seeded on day 1 is completely removed by aspiration and the diluted test substances are immediately added to the cells. The dilution and addition of the substances takes place with a pipetting robot (Beckman FX). The final volume of the test substances diluted in medium is 100 μl per well of a 96-well microtiter plate. The DMSO concentration in the test is less than 0.1% v/v in order to avoid cytotoxic effects of the solvent.
The test plates are incubated in an incubator at 37° C. and 5% CO2 for 24 h.
The ABCA1 reporter cells treated with the test substances are removed from the incubator and the medium is aspirated off. […]

SMILES | EC50 [nM]
COc1ccccc1N1CCN(C(=O)[C@@H]2CN(S(=O)(=O)c3cc(Cl)c(Cl)s3)C[C@H]2c2ccccc2)CC1 (racemic) [Example 27, [1-(4,5-Dichlorothiophene-2-sulfonyl)-3,4-trans-4-phenylpyrrolidin-3-yl]-[4-(2-methoxyphenyl)piperazin-1-yl]methanone] | 6990
Cc1ccc(N2CCN(C(=O)[C@@H]3CN(S(=O)(=O)c4ccc(Cl)s4)C[C@H]3c3ccccc3)CC2)c(C)c1 (racemic) [Example 38, [1-(5-Chlorothiophene-2-sulfonyl)-3,4-trans-4-phenylpyrrolidin-3-yl]-[4-(2,4-dimethylphenyl)piperazin-1-yl]methanone] | 2660
Cc1ccc([C@@H]2CN(S(=O)(=O)c3c(C)noc3C)C[C@H]2C(=O)N2CCN(c3cc(C)ccc3C)CC2)cc1 [Example 1, [1-(3,5-Dimethylisoxazole-4-sulfonyl)-3,4-trans-4-p-tolylpyrrolidin-3-yl]-[4-(2,5-dimethylphenyl)piperazin-1-yl]methanone trifluoroacetate] | 2840
COc1ccccc1N1CCN(C(=O)[C@@H]2CN(S(=O)(=O)c3ccc(Cl)s3)C[C@H]2c2ccccc2)CC1 (racemic) [Example 26, [1-(5-Chlorothiophene-2-sulfonyl)-3,4-trans-4-phenylpyrrolidin-3-yl]-[4-(2-methoxyphenyl)piperazin-1-yl]methanone] | 2940
COc1ccc(OC)c(N2CCN(C(=O)[C@@H]3CN(S(=O)(=O)CC(F)(F)F)C[C@H]3c3ccccc3)CC2)c1 [Example 76, [4-(2,5-Dimethoxyphenyl)piperazin-1-yl]-[3,4-trans-4-phenyl-1-(2,2,2-trifluoroethanesulfonyl)pyrrolidin-3-yl]methanone trifluoroacetate] | 3120
COc1cccc(S(=O)(=O)N2C[C@@H](C(=O)N3CCN(c4cc(C)ccc4C)CC3)[C@H](c3c(C)noc3C)C2)c1 [Example 104, [3,4-trans-4-(3,5-Dimethylisoxazol-4-yl)-1-(3-methoxybenzenesulfonyl)-pyrrolidin-3-yl]-[4-(2,5-dimethylphenyl)piperazin-1-yl]methanone trifluoroacetate] | 6270
COc1cccc(S(=O)(=O)N2C[C@@H](Cc3ccccc3)[C@H](C(=O)N3CCN(c4cc(C)ccc4C)CC3)C2)c1 [Example 94, [3,4-trans-4-Benzyl-1-(3-methoxybenzenesulfonyl)pyrrolidin-3-yl]-[4-(2,5-dimethylphenyl)piperazin-1-yl]methanone trifluoroacetate] | 2930
COc1ccccc1N1CCN(C(=O)[C@@H]2CN(S(=O)(=O)c3cccs3)C[C@H]2c2ccccc2)CC1 (racemic) [Example 24, [4-(2-Methoxyphenyl)piperazin-1-yl]-[3,4-trans-4-phenyl-1-(thiophene-2-sulfonyl)pyrrolidin-3-yl]methanone] | 15000
Cc1ccc(C)c(N2CCN(C(=O)[C@@H]3CN(S(=O)(=O)c4c(C)noc4C)C[C@H]3C(C)C)CC2)c1 [Example 95, [1-(3,5-Dimethyl isoxazole-4-sulfonyl)-3,4-trans-4-isopropylpyrrolidin-3-yl]-[4-(2,5-dimethylphenyl)piperazin-1-yl]methanone trifluoroacetate] | 4590
COc1ccc(N2CCN(C(=O)[C@@H]3CN(S(=O)(=O)c4ccc(Cl)s4)C[C@H]3c3ccccc3)CC2)cc1 (racemic) [Example 60, [1-(5-Chlorothiophene-2-sulfonyl)-3,4-trans-4-phenylpyrrolidin-3-yl]-[4-(4-methoxyphenyl)piperazin-1-yl]methanone] | 6680
Cc1ccc(N2CCN(C(=O)[C@@H]3CN(S(=O)(=O)c4ccc(Cl)s4)C[C@H]3c3ccccc3)CC2)cc1C (racemic) [Example 44, [1-(5-Chlorothiophene-2-sulfonyl)-3,4-trans-4-phenylpyrrolidin-3-yl]-[4-(3,4-dimethylphenyl)piperazin-1-yl]methanone] | 15100
Cc1ccc(N2CCN(C(=O)[C@@H]3CN(S(=O)(=O)c4cc(Br)c(Br)s4)C[C@H]3c3ccccc3)CC2)cc1C (racemic) [Example 43, [1-(4,5-Dibromothiophene-2-sulfonyl)-3,4-trans-4-phenylpyrrolidin-3-yl]-[4-(3,4-dimethylphenyl)piperazin-1-yl]methanone] | 4080
COc1cccc(S(=O)(=O)N2C[C@@H](C(=O)N3CCN(c4cc(C)ccc4C)CC3)[C@H](C(C)C)C2)c1 [Example 96, [4-(2,5-Dimethylphenyl)piperazin-1-yl]-[3,4-trans-4-isopropyl-1-(3-methoxy-benzenesulfonyl)pyrrolidin-3-yl]methanone trifluoroacetate] | 3600

Now those with a lower EC50, led by results:

EC50 [nM] | SMILES
1770 | O=C([C@@H]1CN(S(=O)(=O)c2cc(Br)c(Br)s2)C[C@H]1c1ccccc1)N1CCN(c2cccc(C(F)(F)F)c2)CC1 (racemic) [Example 31, [1-(4,5-Dibromothiophene-2-sulfonyl)-3,4-trans-4-phenylpyrrolidin-3-yl]-[4-(3-trifluoromethylphenyl)piperazin-1-yl]methanone]
1350 | Cc1ccc(C)c(N2CCN(C(=O)[C@@H]3CN(S(=O)(=O)c4cccnc4)C[C@H]3c3ccccc3C)CC2)c1 [Example 100, [4-(2,5-Dimethylphenyl)piperazin-1-yl]-[1-(pyridine-3-sulfonyl)-3,4-trans-4-o-tolylpyrrolidin-3-yl]methanone trifluoroacetate]
1230 | Cc1ccc(C)c(N2CCN(C(=O)[C@@H]3CN(S(=O)(=O)c4c(C)noc4C)C[C@H]3c3ccc4c(c3)OCO4)CC2)c1 [Example 87, [3,4-trans-4-Benzo[1,3]dioxol-5-yl-1-(3,5-dimethylisoxazole-4-sulfonyl)-pyrrolidin-3-yl]-[4-(2,5-dimethylphenyl)piperazin-1-yl]methanone trifluoroacetate]
1050 | COc1cccc(S(=O)(=O)N2C[C@@H](C(=O)N3CCN(c4cc(C)ccc4C)CC3)[C@H](c3cccc(C)c3)C2)c1 [Example 102, [4-(2,5-Dimethylphenyl)piperazin-1-yl]-[1-(3-methoxybenzenesulfonyl)-3,4-trans-4-m-tolylpyrrolidin-3-yl]methanone trifluoroacetate]
867 | Cc1ccc(C)c(N2CCN(C(=O)[C@@H]3CN(S(=O)(=O)c4c(C)noc4C)C[C@H]3c3ccsc3)CC2)c1 [Example 111, [1-(3,5-Dimethylisoxazole-4-sulfonyl)-3,4-trans-4-thiophen-3-ylpyrrolidin-3-yl]-[4-(2,5-dimethylphenyl)piperazin-1-yl]methanone trifluoroacetate]
395 | Cc1ccc(C)c(N2CCN(C(=O)[C@H]3CN(S(=O)(=O)c4cccnc4)C[C@H]3c3ccccc3)CC2)c1 [Example 120, [4-(2,5-Dimethylphenyl)piperazin-1-yl]-[3,4-cis-4-phenyl-1-(pyridine-3-sulfonyl)pyrrolidin-3-yl]methanone trifluoroacetate]
372 | Cc1ccc(C)c(N2CCN(C(=O)[C@@H]3CN(S(=O)(=O)c4c(C)noc4C)C[C@H]3c3c(C)cccc3C)CC2)c1 [Example 106, [1-(3,5-Dimethylisoxazole-4-sulfonyl)-3,4-trans-4-(2,6-dimethylphenyl)pyrrolidin-3-yl]-[4-(2,5-dimethylphenyl)piperazin-1-yl]methanone trifluoroacetate]
